Laboratory results published in patent US11473088B2, “Method of treating cancer and method of sensitizing cancer cells to the action of chemotherapeutic agents via growth hormone receptor antagonists or knock down” (Ohio University, priority 2016, dated 2022).

Assays:
Type in all cases: cell-based, human
SK-MEL-28 cells = test: RT-qPCR of RNA levels after hGH addition or GHR-KD
Procedure: (§1) For hGH treatment, 16 hours after seeding (or 24 hours post-transfection), the cells were serum-starved for 2 hours in serum-free growth media, and hGH (phosphate buffered saline was used as control where applicable) was added at the noted concentrations (0-, 5-, 50-, and 150 ng/ml). Cells were subsequently incubated for 24 hours before evaluating RNA levels. Recombinant hGH was purchased from Antibodies Online (#ABIN2017921, Atlanta, Ga.).
(§2) Transfection was performed using siLentFect lipid reagent (Biorad #170-3360, Hercules, Calif.) following the manufacturer's protocol. […] Mock transfections were performed using universal scrambled negative control siRNA-duplex (Origene #SR30004). TYE-563-fluorescent labeled siRNA duplex (Origene #SR30002) was used as the transfection control. Cells were trypsinized, counted using a Countess Automated Cell Counter (Life Technologies, Carlsbad, Calif.), and seeded at 25,000-30,000 cells/cm^2, the cells being allowed to attach for 16-18 hours. The growth media was replaced with fresh antibiotic free complete growth medium just prior to transfection. […] Media was changed to complete growth medium plus antibiotics after 24 hours. RNA levels were analyzed 48 hours post-transfection, and protein levels were analyzed at 60 hours post-transfection.
(§3) RNA extraction was performed using the IBI-Trizol based total RNA purification kit (MidSci #IB47632, St. Louis, Mo.), and reverse transcription was performed using Maxima First Strand cDNA synthesis kit (Thermo Fisher Scientific #K1642, Waltham, Mass.) following the manufacturers' protocols. Real time-quantitative PCR and melt curve analysis were performed using Maxima SYBR-Green qPCR master mix (Thermo Fisher Scientific #K0241) and a T100 thermal cycler (Biorad #1861096, Hercules, Calif.). RNA and DNA concentrations were estimated using a Nanodrop2000 (Thermo Fisher Scientific, Waltham, Mass.) spectrophotometer. Primers were obtained from Sigma-Aldrich for the following human genes, with primer efficiency being experimentally confirmed: GAPDH, b-Actin, GHR, GHRHR, SOCS2, IGF1, IGF1R, IGF2, IGF2R, PRL, PRLR, insulin (Ins), IR, IGFBP2, IGFBP3, EGFR, HGF, cMET and ERBB3. Each sample represented a pool of two replicates per experiment. Experiments were performed at least three times. Each qPCR for individual genes and every treatment for every cell type was performed in triplicates.
(§4) And so—referring now to FIGS. 12A-12B, 17A-17C, 18A-18F, 19A-19F, and 20A-20F—RT-qPCR analysis of GH-IGF axis in human melanoma cells (FIGS. 12A-12B) and RT-qPCR analysis of GH-GHR and PRL-PRLR pairs in human melanoma cells (FIGS. 17A-17C) was performed. […] And, while not shown in FIGS. 12A and 12B, similar results for MALME-3M, MDA-MB-435 and SK-MEL-5 human melanoma cells are presented in FIGS. 13A-13L, 17A-17C, 18A-18F, 19A-19F, and 20A-20F. […] In all cases, exogenous hGH treatment was for 24 hr. RNA levels were normalized against expression of beta-actin and GAPDH as reference genes. […] Cells were grown in presence of 50 ng/mL exogenous GH and protein level changes were estimated 60 hr. post-transfection. [*, p<0.05, Students t test, n=3]. […] The percentage free area at the end time point was calculated using ImageJ software and reflected the decrease/inhibition in migration. […] [*, p<0.05, Students t-test, n=3]. In all cases, exogenous hGH treatment was for 24 hr. RNA levels were normalized against expression of β-actin and GAPDH as reference genes [*, p<0.05, Wilcoxon sign rank test, n=4]. […] In all cases, exogenous hGH treatment was for 24 hr. RNA levels were normalized against expression of β-actin and GAPDH as reference genes. [*, p<0.05, Wilcoxon sign rank test, n=4]

MALME-3M cells = test: RT-qPCR of RNA levels after hGH addition or GHR-KD; settings: 0, 5, 50 and 150 ng/mL hGH, 24 hr
Procedure: as §1, §2, §3, §4

MDA-MB-435 cells = test: RT-qPCR of RNA levels after hGH addition or GHR-KD
Procedure: as §1, §2, §3, §4

SK-HEP-1 cells = test: RT-qPCR after GH / GHR-antagonist treatment; settings: 50 ng/mL GH, 3 days
Procedure: Following treatments, cells were lysed, and RNA extraction was performed using IBI Tri-isolate kit (IBI), following manufacturer's protocol. RT-qPCR was performed as described previously.
The inventors had previously shown that knock-down of GHR in turn strongly attenuates MET as well as HGF transcript levels in human melanoma. To verify this observation in another GHR expressing human cancer like HCC, the inventors analyzed the effects of GH and GHR-antagonist treatment on the expression of the oncogenic HGF-MET loop in human liver cancer cells. HepG2 and SK-HEP-1 cells were treated for 3 days with either 50 ng/mL GH (2.5 nM), or 50 nM GHR-antagonist, or both, and their RNA expressions were compared against untreated controls at basal levels (i.e. no drug treatment). No additional effect of added GH on the expression levels of HGF or MET in the liver cancer cell lines was observed, except a 2-fold increase in MET levels in SK-HEP-1 cells (FIG. 39). […] Irrespective of presence of added GH, the antagonist lowered HGF levels by >4-fold in Hep-G2 cells and up to 2-fold in SK-HEP-1 cells; while the MET levels were decreased by >2-fold in both Hep-G2 and SK-HEP-1 cells compared to the GH treated samples (FIG. 39). […]

[1] = 0, 5, 50 and 150 ng/mL hGH, 24 hr

“hGH: Recombinant human growth hormone, Antibodies Online #ABIN2017921” was tested, and the “IGFBP2 RNA levels at high GH levels” value (SK-MEL-28 cells) was “increase”, the “N-cadherin RNA levels with increase of GH” value (SK-MEL-28 cells) was “significant dose-dependent increase” and the “vimentin RNA levels with increase of GH” value (SK-MEL-28 cells) was “significant dose-dependent increase”. The “RNA levels of MITF with GH” value (SK-MEL-28 cells; [1]) was “dose dependent increase”, the “RNA levels of TYRP1 with GH” value (SK-MEL-28 cells; [1]) was “dose-dependent increase” and the “RNA levels of TYRP1 with GH” value (MALME-3M cells) was “dose-dependent increase”. For the same substance, the “E-cadherin RNA levels with increasing GH” value (MDA-MB-435 cells) was “decreased significantly” and the “increase in MET levels” value (SK-HEP-1 cells) was 2 fold.
